Test results as given in patent US4648996A, “Phenyl substituted-2,4,6,8-nonatetraenoic acid” (Hoffmann-La Roche Inc., priority 1985, dated 1987).
Where two headings read alike, the source gives them in different places.

Legend:
[1] = test system: adjuvant arthritis in rats; test: Chronic adjuvant arthritis test (Table I); assay type: in vivo, male Charles River Lewis rats; conditions: for change in vivo at 75 µmol/kg / change in vivo at 96 µmol/kg / change in vivo at 76 µmol/kg / change in vivo at 60 µmol/kg: Rattus norvegicus, 552 h, day 23; for Body Weight Gain: vehicle 28-31
Procedure: That the compounds of this invention are effective anti-arthritic agents can be seen from the results obtained when these compounds are administered to rats in accordance with the chronic adjuvant arthritis test system disclosed in Billingham and Davies "Handbook of Experimental Pharmacology" (editors J. R. Vane and S. H. Ferreira) Vol. 50/II, pg. 108-144, Springer-Verlag, Berlin, 1979).
In this procedure, adjuvant arthritis was induced by the subplantar injection on day 0 of 0.05 ml of adjuvant [a suspension of heat-killed, dessicated Mycobacterium butyricum, 0.5% (w/v), in heavy mineral oil containing 0.2% digitonin] into the right hind paw of male Charles River Lewis rats (120-140 g) that were housed individually and given food and water ad lib. Paw volumes (both hind paws) were measured immediately after injection of the adjuvant. Paw Volumes were also measured, to follow the development of inflammation-induced swelling in the arthritic paws, at intervals of 3 to 7 days by immersion of the paw to the level of the lateral malleolus in a mercury plethysmograph.
Drugs were administered once a day (starting on the day of adjuvant injection) by […] using Tween 80 (polyoxyethylene sorbitan mono-oleate) at a dose of 0.25 ml/100 g body weight as the vehicle. Arthritic control rats received daily doses of the vehicle only. On day 23-25, the rats were sacrificed, plasma collected and plasma fibrinogen levels determined (ammonium sulfate turbidimetric method) as described by Exner et al., Amer. J. Clin Path, 71:521-527 (1979). Anti-inflammatory activity of the test drugs were determined by comparing the extent of paw swelling (paw volume on a particular day, i.e. day four to day twenty-five, minus the paw volume on day 0) in drug-treated arthritic rats with the extent of paw swelling in the vehicle-treated arthritic rats. Drug induced decreases in the level of plasma fibrinogen, an acute phase protein that is elevated in the plasma of rats with adjuvant-induced arthritis, were also used to quantitate the anti-inflammatory activity.

[2] = test system: impregnated sponge granuloma in the rat; test: Impregnated sponge granuloma test in the rat; assay type: in vivo, AHH/R female rats (PVG derived)
Procedure: AHH/R female rats (PVG derived) with an initial weight range of 120-140 g. were used.
Sponge preparation. Pellets (6.5 mm diameter) were punched from cellulose sponge cloth ("Wettex") and 0.1 ml. of a suspension containing 0.5 mg.ml^-1 of heat killed M. tuberculosis (human strains C, DT and PN) in sterile saline was applied to each pellet. The pellets were dried, weighed and autoclaved.
Rats were randomly divided into groups of five and daily dosing with test compounds was commenced. After the fifth dose the rats were anaesthetised with Sagatal (45 mg.kg^-1 i.p.) the backs were shaved and two pellets were implanted subcutaneously (one each side) into each rat through a small dorsal midline incision. The incision was closed and the rats allowed to recover from the anaesthetic.
Seven days after implantation the rats were killed and the pellets were removed, dissected free of extraneous tissue and weighed. Each pellet was then placed in a 4 ml aliquot of distilled water, chopped with fine scissors and sonicated. After centrifugation the Na^+ and K^+ content of the supernatant was determined by flame photometry. In addition the adrenal and thumus glands from each rat were dissected out and weighed and the lower hind limbs were removed for measurement of tibial bone breaking strain. Body weights were also recorded throughout the test period.
The mean ± SE for each of the parameters was calculated and differences from the control values were determined by Student's t test (2-tailed). Percentage reductions of granuloma weight, Na^+ and K^+ content and percentage changes of adrenal and thymus, weight and tibial breaking strain were determined.

[3] = test system: MBSA delayed hypersensitivity in mice; test: Delayed hypersensitivity to methylated bovine serum albumin (MBSA); assay type: in vivo, Male and female MFI mice substrain E33; conditions: 10 mg.kg^-1 oral
Procedure: Male and female MFI mice substrain E33. Initial weight approximately 25 gm.
Dosing with vehicle and retinoid commenced on day 0 and finished on day 9.
Each group consisted of 4 male and 6 female mice (separately caged). Drugs were dosed orally at a dose volume of 10 ml.kg^-1 (10 doses).

[4] = test system: adjuvant arthritis in the rat; test: Developing adjuvant arthritis in the rat; assay type: in vivo, AHH/R Female rats (PVG derived); conditions: 15 mg.kg^-1 p.o.
Procedure: AHH/R Female rats (PVG derived with an initial weight range of 110 to 140 g. were used.
Adjuvant for injection. An homogenized suspension of heat killed M tuberculosis (Human strains C, DT and PN), 5 mg.Ml^-1 in liquid paraffin was prepared.
Rats were randomly split into groups of five and adjuvant arthritis was induced by the sub-plantar injection of 0.1 ml of adjuvant suspension into the right hind paw of each rat. Test compounds were administered by intubation each morning commencing the day of adjuvant injection. Two groups of control rats were dosed with the vehicle as was a group of three normal rats included for comparative purposes. Dosing was carried out daily until the end of the test on day 15 except for the first weekend (days 5 & 6). Treatment groups are shown in Table III and include etretinate as standard retinoid.
Measurements of right hind paw volume were made initially and on days 2 and 4 after and adjufant injection (primary phase). Right and left hind paw volume were then measured, on day 8 and every two or three days until the end of the experiment on day 15 (secondary phase). At this time the mobility of each ankle joint and the incidence and severity of secondary lesions on nose, ears, forepaws, left hind paw and tail were also assessed in terms of degrees of flexion possible and by using an arbitrary scoring system, respectively.
The time course curves for the injected paws were integrated from days 0 to 4 to reflect primary swelling and from days 8 to 15 (secondary swelling). The secondary swelling in the non-injected paw was integrated similarly from days 8 to 15. Calculations were carried out using a specific computer program which computed mean ± se for each integrated area. The significance of differences from controls was determined by Student's t test (2 tailed) and percentage reductions from control areas were calculated. Percentage improvements in joint mobility and percentage reductions in lesion score were also determined. In the latter case the Wilcoxon rank sum test (2 tailed) was used to express the difference from the control score using raw data. Mean body weight change in each group was recorded.

[5] = test system: established adjuvant arthritis in rats; test: Effect on the course of established adjuvant arthritis; assay type: in vivo, Male Lewis rats from Charles River; conditions: 1 mg/kg, 7 days
Procedure: Male Lewis rats from Charles River were used for these experiments.
Heat-killed, dessicated Mycobacteriam butyricum.
Adjuvant arthritis was induced by the injection of 0.1 ml of adjuvant [a suspension of heat-killed, dessicated Mycobacterium butyricum, 0.5% CW/V) in heavy mineral oil containing 0.2% digitonin] into the base of the tail. The arthritis was allowed to develop for 21 days and then the volume of both hind paws were measured using a mercury plethysmograph. The rats were divided into groups of 8 with equal mean paw volumes and then the rats were treated with Compound A, indomethacin (as a control drug), or vehicle for 7 days at the end of the treatment period, the volumes of both hind paws were again measured to assess antiinflammatory effects. Body weight changes were also followed and, at the end of the experiment, plasma was collected for determination of plasma fibrinogen (Exner et. al., Amer. J. Clin. Path, 71: 521-527).
^b Drugs were administered once a day for 7 days by intubation
^c Change in paw volume/body weight equals paw volume body weight on […]

[6] = oral 75 μMol/Kg, read-out: % Reduction in Paw Volume, Left
[7] = oral 75 μMol/Kg, read-out: % Reduction in Paw Volume, Right

CCCCCCCCCOc1ccc(OC)cc1/C=C/C(C)=C/C=C/C(C)=C/C(=O)O
change in vivo at 75 µmol/kg [1, 6]: -24% | change in vivo at 75 µmol/kg [1, 7]: -27% | Plasma fibrinogen % change (reduction) ([1]; oral 75 μMol/Kg): -21% | Body Weight Gain ([1]; oral 75 μMol/Kg): +27 g

CCCCCCCCNc1ccccc1/C=C/C(C)=C/C=C/C(C)=C/C(=O)OCC
change in vivo at 75 µmol/kg [1, 6]: -53% | change in vivo at 75 µmol/kg [1, 7]: -53% | Body Weight Gain ([1]; oral 75 μMol/Kg): +24 g

CCCCCCCCCOc1cccc(Cl)c1/C=C/C(C)=C/C=C/C(C)=C/C(=O)O
change in vivo at 75 µmol/kg [1, 6]: -32% | change in vivo at 75 µmol/kg [1, 7]: -29% | Body Weight Gain ([1]; oral 75 μMol/Kg): +35 g

CC(/C=C/c1ccccc1OCCCCCCCCO)=C\C=C\C(C)=C\C(=O)O
change in vivo at 96 µmol/kg ([1]; oral 96 μMol/Kg, read-out: % Reduction in Paw Volume, Left): -49% | change in vivo at 96 µmol/kg ([1]; oral 96 μMol/Kg, read-out: % Reduction in Paw Volume, Right): -37% | Plasma fibrinogen % change (reduction) ([1]; oral 96 μMol/Kg): -35% | Body Weight Gain ([1]; oral 96 μMol/Kg): +27 g

CCCCCCCCCOc1cccc(F)c1/C=C/C(C)=C/C=C/C(C)=C/C(=O)O
change in vivo at 75 µmol/kg [1, 6]: -68% | change in vivo at 75 µmol/kg [1, 7]: -56% | Plasma fibrinogen % change (reduction) ([1]; oral 75 μMol/Kg): -51% | Body Weight Gain ([1]; oral 75 μMol/Kg): +46 g

C[C@@H]1C[C@H]2[C@@H]3CCC4=CC(=O)C=C[C@]4(C)[C@@]3(F)[C@@H](O)C[C@]2(C)[C@@]1(O)C(=O)CO [Dexamethasone]
% reduction of granuloma K+ ([2]; 0.5 mg.kg^-1 sc): 75.2% | % reduction of granuloma Na+ ([2]; 0.5 mg.kg^-1 sc): 51.2% | % reduction of granuloma Wet weight ([2]; 0.5 mg.kg^-1 sc): 65.5%

CCOC(=O)/C=C(C)/C=C/C=C(C)/C=C/c1c(C)cc(OC)c(C)c1C [Etretinate, reference compound]
% increase paw volume ([3]; 10 doses): 59 ± 9% | % reduction (cf. arachis oil control) ([3]; 10 doses): 46% | Mean body weight change ([3]; female (F)): -2.0 g | Mean body weight change ([3]; male (M)): -0.8 g | Body Weight Change Days 0-15 [4]: +1.0 g | Body Weight Change Days 8-15 [4]: -5.0 g | Joint Mobility (% INC) ([4]; day 15): 50% | Lesion Score (% RDN) ([4]; day 15): 56% | % reduction of paw swelling, Primary (right) ([4]; days 0-4): 9% | % reduction of paw swelling, Secondary (left) ([4]; days 8-15): 67% | % reduction of paw swelling, Secondary (right) ([4]; days 8-15): 30% | % change in adrenal weight ([2]; 15 mg.kg^-1 p.o.): +22.9% | % change in thymus weight ([2]; 15 mg.kg^-1 p.o.): +15.2% | % change in tibial breaking strains ([2]; 15 mg.kg^-1 p.o.): -4.6% | % reduction of granuloma K+ ([2]; 15 mg.kg^-1 p.o.): -3.9% | % reduction of granuloma Na+ ([2]; 15 mg.kg^-1 p.o.): 5.9% | % reduction of granuloma Wet weight ([2]; 15 mg.kg^-1 p.o.): 2.7% | Body Weight change ([2]; 15 mg.kg^-1 p.o.): +13.3 ± 2.6 g | rats that died under anaesthesia ([2]; 15 mg.kg^-1 p.o., 2 control rats also died): 1 rat

COc1ccc2c(c1)c(CC(=O)O)c(C)n2C(=O)c1ccc(Cl)cc1 [Indomethacin, reference compound]
Plasma fibrinogen % change (reduction) ([1]; oral 3 μMol/Kg): -30% | Plasma Fibrinogen [5]: 978 ± 100 mg/dL | Change in Body Weight ([5]; day 28 minus day 22): 25.6 ± 3.1 g | Change in Paw Volume ([5]; day 28 minus day 22, both hind paws): -1.22 ± 0.15 mL

CCCCCCCCCOc1ccccc1/C=C/C(C)=C/C=C/C(C)=C/C(=O)O [drawing 5]
change in vivo at 76 µmol/kg ([1]; oral 76 μMol/Kg, read-out: % Reduction in Paw Volume, Left): -58% | change in vivo at 76 µmol/kg ([1]; oral 76 μMol/Kg, read-out: % Reduction in Paw Volume, Right): -43% | Plasma fibrinogen % change (reduction) ([1]; oral 76 μMol/Kg): -55% | Body Weight Gain ([1]; oral 76 μMol/Kg): +27 g

CC1=C(/C=C/C(C)=C/C=C/C(C)=C\C(=O)O)C(C)(C)CCC1 [reference compound]
change in vivo at 60 µmol/kg ([1]; oral 60 μMol/Kg, read-out: % Reduction in Paw Volume, Left): -49% | change in vivo at 60 µmol/kg ([1]; oral 60 μMol/Kg, read-out: % Reduction in Paw Volume, Right): -33% | Plasma fibrinogen % change (reduction) ([1]; oral 60 μMol/Kg): -18% | Body Weight Gain ([1]; oral 60 μMol/Kg): -7 g
